As usually defined, the Ki is the equilibrium dissociation constant of an inhibitor or competing ligand from its target.

Values joined by “and” are separate entries in the source; they are usually repeats but may differ in a detail not shown here. Identical values can stand only once.

Data on three compounds can be found in patent US20250197368A1 (priority 2020, published 2025).

Assay [1] deals with human α3β3γ2 GABAARs (benzodiazepine site) (Homo sapiens (Human), UniProt P18507+P34903). In words: In vitro radioligand binding assay ([3H]Ro15-1788 displacement), α3-GABAAR Ki. The following applies: L(tk-) cell membranes, 4 nM [3H]Ro15-1788. The method in brief:
(§1)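 Ki derived via Cheng-Prusoff from IC50 for displacement of 4 nM [3H]Ro15-1788 (Kd from saturation binding), with 1-3 μM TP003 defining nonspecific binding. Incubation lasted 1 h at 4° C on membranes of induced L(tk−) cells stably transfected with the human subunits; detection by filtration and scintillation counting.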

In assay [2] the target is human α2β3γ2 GABAARs (benzodiazepine site) (Homo sapiens (Human), UniProt P18507+P47869). In words: In vitro radioligand binding assay ([3H]Ro15-1788 displacement), α2-GABAAR Ki. The method in brief: as §1
Chain of human α2β3γ2 GABAARs (benzodiazepine site) (P47869 29-451): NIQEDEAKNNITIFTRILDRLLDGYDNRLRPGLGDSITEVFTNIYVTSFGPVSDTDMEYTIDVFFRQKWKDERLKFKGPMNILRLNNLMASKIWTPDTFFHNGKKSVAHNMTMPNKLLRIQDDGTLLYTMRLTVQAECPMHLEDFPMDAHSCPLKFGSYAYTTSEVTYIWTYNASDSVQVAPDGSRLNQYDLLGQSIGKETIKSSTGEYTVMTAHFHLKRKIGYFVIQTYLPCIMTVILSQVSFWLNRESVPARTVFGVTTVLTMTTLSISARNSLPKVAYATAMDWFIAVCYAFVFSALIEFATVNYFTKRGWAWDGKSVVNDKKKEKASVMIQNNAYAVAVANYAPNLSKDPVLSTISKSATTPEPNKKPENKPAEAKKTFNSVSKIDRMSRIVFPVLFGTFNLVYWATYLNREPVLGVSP
Chain of human α2β3γ2 GABAARs (benzodiazepine site) (P28472 26-473 partner): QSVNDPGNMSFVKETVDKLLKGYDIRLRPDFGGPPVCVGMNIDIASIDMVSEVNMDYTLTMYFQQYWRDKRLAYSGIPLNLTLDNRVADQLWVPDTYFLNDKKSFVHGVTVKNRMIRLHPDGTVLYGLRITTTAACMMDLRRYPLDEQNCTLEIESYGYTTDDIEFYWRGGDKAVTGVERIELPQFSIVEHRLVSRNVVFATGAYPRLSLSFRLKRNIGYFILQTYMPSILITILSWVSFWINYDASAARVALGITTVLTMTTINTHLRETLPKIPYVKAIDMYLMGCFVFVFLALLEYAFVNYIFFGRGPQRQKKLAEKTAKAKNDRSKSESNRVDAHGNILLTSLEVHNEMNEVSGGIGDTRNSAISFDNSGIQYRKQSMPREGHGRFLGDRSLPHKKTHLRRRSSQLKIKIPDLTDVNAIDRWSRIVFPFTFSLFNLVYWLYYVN
Chain of human α2β3γ2 GABAARs (benzodiazepine site) (P18507 40-475): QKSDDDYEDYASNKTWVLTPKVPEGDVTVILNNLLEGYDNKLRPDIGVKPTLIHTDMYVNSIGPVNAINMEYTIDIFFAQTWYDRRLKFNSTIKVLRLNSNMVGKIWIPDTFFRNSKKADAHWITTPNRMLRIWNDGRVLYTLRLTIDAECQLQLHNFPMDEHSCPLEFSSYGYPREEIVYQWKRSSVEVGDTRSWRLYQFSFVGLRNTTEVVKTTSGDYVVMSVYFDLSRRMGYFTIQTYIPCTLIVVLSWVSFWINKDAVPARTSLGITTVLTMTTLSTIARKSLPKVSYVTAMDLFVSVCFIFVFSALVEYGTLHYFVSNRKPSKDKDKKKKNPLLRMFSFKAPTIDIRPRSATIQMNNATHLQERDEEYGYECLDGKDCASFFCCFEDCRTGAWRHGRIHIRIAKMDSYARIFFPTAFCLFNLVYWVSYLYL
Assay [3] concerns rat brain benzodiazepine binding sites on GABAAR. In words: Rat brain receptor occupancy assay ([3H]flumazenil binding). The settings on record: for occupancy of rat brain GABAA receptors (benzodiazepine binding sites): mean±SEM. Type of assay: in vivo. As for the experimental part: The occupancy of rat brain benzodiazepine binding sites on GABAAR by compound was measured by its ability to inhibit the ex vivo binding of [^3H]Ro15-1788 ([^3H] flumazenil) in brain samples from rats dosed with the test compound.
Male Sprague Dawley rats (c. 200-300 g) were used for the studies. All animals were acclimatized 5-7 days before dosing and were handled and weighed prior to treatments.
Rats (3 to 6 per group) were dosed p.o. with either the vehicle or the test compound suspended in vehicle (doses of 0.1 to 10 mg/kg) at a volume of 5 mL per kg of body weight. To block all benzodiazepine binding sites and therefore define the level of non-specific binding of [^3H]Ro15-1788, a separate group of animals received a dose of 5 mg/kg p.o. of bretazenil (5 mL/kg) made up in 70% PEG, 30 minutes before the animals were killed.
At predetermined time intervals, animals were culled via stunning and cervical dislocation. Brain tissues were harvested promptly, and each left and right hemisphere were snap frozen and stored at −80° C.
On the day of the brain samples analysis, each left hemisphere was weighed and homogenized in 8 volumes of ice-cold 10 mM potassium phosphate buffer (pH 7.4). 300 μL of the mixture was further diluted by adding it to a tube containing 1050 μL of assay buffer and [^3H] flumazenil further added to make a total volume of 1500 μL and achieve a final concentration of 4 nM, mixing immediately and incubating on ice.
Following 20 seconds incubation time, the sample was rapidly filtered through Whatman GF/B filter in triplicates (500 μL/filter) using a vacuum filtration manifold. The filters were subsequently washed with 10 mL of ice cold 50 mM Tris buffer (pH 7.4) and then placed into scintillation vials containing scintillation fluid. Filter-bound radioactivity was counted on a TriCarb2900 scintillation counter.
In each experiment, the value of nonspecific binding defined using bretazenil was subtracted from all groups to give values of specific binding.
The percent GABAAR occupancy of the test compound at a specific dose and treatment time was calculated as the percentage by which the specific binding in the vehicle treated group was inhibited by the drug. Therefore, the % occupancy of the modulator in drug-treated animals was expressed as: 100−((Average test compound−Average bretazenil)/(Average vehicle−Average Bretazenil)*100) where ‘average test compound’, ‘average bretazenil’ and ‘average vehicle’ are the average counts in test compound-, bretazenil- and vehicle-treated animals, respectively.

As for `CCCNC(=O)c1c(N)c2cccc(-c3nc(C)ncc3F)c2[nH]c1=O` [Example 40, 4-Amino-8-(5-fluoro-2-methyl-pyrimidin-4-yl)-2-oxo-N-propyl-1H-quinoline-3-carboxamide], the figures for the Ki in assay [1] and in assay [2] were 5.06 nM and 1.19 nM, respectively. Moreover, the “occupancy of rat brain GABAA receptors (benzodiazepine binding sites)” value in assay [3] (1 mg/kg p.o.) is recorded as 97.3±2.0%. The “occupancy of rat brain benzodiazepine binding sites, dose dependence” value (shortened to “occupancy … dose dependence”) in assay [3] (doses 0.1 to 10 mg/kg p.o.) is “dose-dependent”.
Consider `CCCNC(=O)c1c(N)c2cccc(-c3cnc(C)cc3OC)c2[nH]c1=O` [Example 18, 4-Amino-8-(4-methoxy-6-methyl-3-pyridyl)-2-oxo-N-propyl-1H-quinoline-3-carboxamide], for which the Ki was 27.9 nM in assay [1] and 9.77 nM in assay [2]. The “occupancy … dose dependence” value in assay [3] (doses 0.3 to 10 mg/kg p.o.) is recorded as “dose-dependent”.
Turning to `CCCNC(=O)c1c(N)c2cccc(-c3cnccc3OC)c2[nH]c1=O` [Example 17, 4-Amino-8-(4-methoxy-3-pyridyl)-2-oxo-N-propyl-1H-quinoline-3-carboxamide], the values for the Ki in assay [1] and in assay [2] were 8.74 nM and 1.64 nM, respectively. Further, the “occupancy of rat brain GABAA receptors (benzodiazepine binding sites)” value in assay [3] (10 mg/kg p.o.) was 101+0.5% and 101±0.5%. Besides, in assay [3] (doses 0.1 to 10 mg/kg p.o.), the “occupancy … dose dependence” value is reported as “dose-dependent”.
